Data as given in paper PMC7920280, “The Multi-Targeting Ligand ST-2223 with Histamine H3 Receptor and Dopamine D2/D3 Receptor Antagonist Properties Mitigates Autism-Like Repetitive Behaviors and Brain Oxidative Stress in Mice” (International Journal of Molecular Sciences, 2021).

What was measured:
malondialdehyde (MDA) = assay: Malondialdehyde (MDA) assay in brain parts of treated BTBR mice; assay type: in vivo; details: i.p., ST-2223 5 mg/kg, RAM 10 mg/kg, ARP 1 mg/kg, MEM 5 mg/kg, mean ± SEM; for MDA, Striatum: n = 3-6, BTBR vehicle 52.7 ± 3.4; for MDA, Hippocampus: n = 3-6, BTBR vehicle 53.8 ± 2.9; for MDA, Cerebellum: n = 3-6, BTBR vehicle 54.0 ± 6.4; for MDA, Prefrontal Cortex: n = 3-6, BTBR vehicle 58.3 ± 1.8
Description: At the end of the behavioral assessments, the animals were sacrificed following previously published protocols. Animals were anesthetized with pentobarbital (40 mg/kg, body weight, i.p.), sacrificed, and perfused via intracardial infusion to wash out the blood, using 1× PBS (0.01 M phosphate buffer, 0.0027 M potassium chloride and 0.137 M sodium chloride) at pH 7.4. […] The brains were then quickly removed and placed on an ice plate. The cerebellum, hippocampus, prefrontal and striatum were excised from the brain and snap-frozen in liquid nitrogen for further use in biochemical assessments. On the day of the biochemical tests, the tissues were homogenized using radioimmunoprecipitation assay (RIPA) buffer (50 mM Tris HCl, pH 7.4, 140 mM NaCl, 1 mM EDTA, 0.5% Triton X-100 and 0.5% sodium deoxycholate) supplemented with protease and phosphatase inhibitors. Then, the homogenates were centrifuged at 14,000 rpm for 30 min (4 °C), and the supernatant was used for evaluation of lipid peroxidation, glutathione, and antioxidant enzymes using spectrophotometric measurements and enzyme-linked immunosorbent assays (ELISA)..
This assay was performed to estimate the amount of lipid peroxidation in experimental animals using an MDA detection kit following the manufacturer’s instructions, as previously described in our laboratories. Briefly, 250 μL of sample or calibrator was incubated with thiobarbituric acid, followed by rigorous vortexing. After 1 h incubation at 60 °C, the mixture was centrifuged at 10,000× g for 2–3 min and the reaction mixture was transferred to a cuvette. Spectra were measured at 532 nm and the results are expressed as µM MDA/mg protein.

[1] = set-up: method as in PMID 31647973; details: systemic pretreatment; cited from earlier work
VPA mouse model of ASD = tested on: VPA mouse model of ASD; set-up: method as in PMID 26074764; details: cited from earlier work
human H3R = biological target: T1, human H3R (Homo sapiens, UniProt Q9Y5N1); assay: [3H]Nα-methylhistamine binding assay, membranes of HEK cells; details: HEK cells stably expressing human H3R, n = 4; read-out: Ki (hH3R)
T1 construct: expressed in transfected cells
T1 sequence (Q9Y5N1 whole entry): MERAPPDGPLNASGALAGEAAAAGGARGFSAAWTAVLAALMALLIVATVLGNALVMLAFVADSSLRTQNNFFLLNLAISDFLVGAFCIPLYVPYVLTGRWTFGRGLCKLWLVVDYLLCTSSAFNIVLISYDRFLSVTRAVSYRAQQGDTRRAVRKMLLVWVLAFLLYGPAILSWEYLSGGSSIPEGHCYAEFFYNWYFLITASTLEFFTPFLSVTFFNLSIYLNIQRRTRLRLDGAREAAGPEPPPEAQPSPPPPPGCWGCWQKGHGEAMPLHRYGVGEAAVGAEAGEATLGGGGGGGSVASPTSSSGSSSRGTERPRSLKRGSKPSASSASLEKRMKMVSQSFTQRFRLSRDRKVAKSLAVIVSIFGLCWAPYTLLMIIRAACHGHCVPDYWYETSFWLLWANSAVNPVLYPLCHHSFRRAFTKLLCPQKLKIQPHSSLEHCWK
Description: (§1) In accordance with previous experimental protocols, the binding affinity of ST-2223 for H3Rs was assessed by applying the [^3H]N^α-methylhistamine binding assay, performed with cell membrane preparation of HEK cells stably expressing the human H3R (n = 4). In addition, and as previously described, the binding affinity of ST-2223 for human dopamine hD1Rs and hD5Rs (HEK) against [^3H]SCH23390 and hD2SRs, hD3Rs (CHO) using [^3H]spiperone (n = 3) was assessed (n = 3).

hH1R = biological target: T2, hH1R (Homo sapiens, UniProt P35367); assay: [3H]pyrilamine binding assay, membranes of CHO cells
T2 construct: expressed in transfected cells
T2 sequence (P35367 whole entry): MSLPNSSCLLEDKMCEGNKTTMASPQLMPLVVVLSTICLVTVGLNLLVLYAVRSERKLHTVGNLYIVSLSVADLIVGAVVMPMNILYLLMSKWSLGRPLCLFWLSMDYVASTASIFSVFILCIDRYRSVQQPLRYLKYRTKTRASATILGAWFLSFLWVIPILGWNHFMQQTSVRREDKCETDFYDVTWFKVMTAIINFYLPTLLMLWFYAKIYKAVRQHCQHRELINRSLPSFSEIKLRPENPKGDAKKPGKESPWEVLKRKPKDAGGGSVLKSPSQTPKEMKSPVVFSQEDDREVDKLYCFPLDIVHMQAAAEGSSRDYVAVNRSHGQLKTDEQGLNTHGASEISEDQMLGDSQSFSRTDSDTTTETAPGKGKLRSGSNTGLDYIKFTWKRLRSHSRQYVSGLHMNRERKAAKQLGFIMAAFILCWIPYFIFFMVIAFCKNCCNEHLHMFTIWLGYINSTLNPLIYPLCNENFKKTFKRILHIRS

hD2SRs = biological target: T3, hD2SRs (Homo sapiens, UniProt P14416); assay: [3H]spiperone displacement assay, CHO cell membranes; assay type: binding
T3 construct: expressed in transfected cells
T3 sequence (P14416 1-414 isoform P14416-2): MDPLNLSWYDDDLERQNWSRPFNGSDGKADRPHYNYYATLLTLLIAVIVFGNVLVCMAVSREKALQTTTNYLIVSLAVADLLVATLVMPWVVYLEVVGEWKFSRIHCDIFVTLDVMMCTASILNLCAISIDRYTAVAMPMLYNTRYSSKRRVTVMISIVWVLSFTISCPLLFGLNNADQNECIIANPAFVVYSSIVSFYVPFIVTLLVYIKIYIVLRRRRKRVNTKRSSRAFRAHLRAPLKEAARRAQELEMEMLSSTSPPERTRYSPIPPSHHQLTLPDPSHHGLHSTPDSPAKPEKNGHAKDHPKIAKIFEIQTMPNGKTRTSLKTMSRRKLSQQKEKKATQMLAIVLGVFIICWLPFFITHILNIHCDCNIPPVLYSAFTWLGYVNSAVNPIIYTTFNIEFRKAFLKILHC
Description: as §1

hD3Rs = biological target: T4, hD3Rs (Homo sapiens, UniProt P35462); assay: as above; assay type: binding
T4 construct: expressed in transfected cells
T4 sequence (P35462 whole entry): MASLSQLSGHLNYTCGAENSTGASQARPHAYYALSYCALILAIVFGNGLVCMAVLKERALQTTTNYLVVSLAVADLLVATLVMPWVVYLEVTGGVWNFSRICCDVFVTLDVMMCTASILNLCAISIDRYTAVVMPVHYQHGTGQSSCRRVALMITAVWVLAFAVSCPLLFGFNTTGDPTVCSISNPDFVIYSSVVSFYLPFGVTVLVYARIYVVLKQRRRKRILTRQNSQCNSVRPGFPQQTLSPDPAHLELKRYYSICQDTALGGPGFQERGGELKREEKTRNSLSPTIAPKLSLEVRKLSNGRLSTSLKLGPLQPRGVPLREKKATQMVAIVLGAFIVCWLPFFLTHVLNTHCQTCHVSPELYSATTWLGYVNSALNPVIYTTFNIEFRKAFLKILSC
Description: as §1

hD1Rs = biological target: T5, hD1Rs (Homo sapiens, UniProt P21728); assay: [3H]SCH23390 displacement assay, HEK cell membranes; assay type: binding
T5 construct: expressed in transfected cells
T5 sequence (P21728 whole entry): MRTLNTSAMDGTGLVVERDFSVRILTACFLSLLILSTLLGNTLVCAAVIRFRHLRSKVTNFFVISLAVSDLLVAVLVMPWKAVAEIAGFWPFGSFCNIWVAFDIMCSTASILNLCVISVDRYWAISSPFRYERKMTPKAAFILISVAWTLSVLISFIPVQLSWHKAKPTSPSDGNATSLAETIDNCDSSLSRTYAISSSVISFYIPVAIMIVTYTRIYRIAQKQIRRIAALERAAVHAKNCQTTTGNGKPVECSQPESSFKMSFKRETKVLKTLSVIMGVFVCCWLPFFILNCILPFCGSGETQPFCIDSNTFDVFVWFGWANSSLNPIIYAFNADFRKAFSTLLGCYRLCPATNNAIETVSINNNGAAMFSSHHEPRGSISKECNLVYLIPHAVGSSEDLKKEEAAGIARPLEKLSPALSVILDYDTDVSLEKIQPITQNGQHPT
Description: as §1

hD5Rs = biological target: T6, hD5Rs (Homo sapiens, UniProt P21918); assay: as above; assay type: binding
T6 construct: expressed in transfected cells
T6 sequence (P21918 whole entry): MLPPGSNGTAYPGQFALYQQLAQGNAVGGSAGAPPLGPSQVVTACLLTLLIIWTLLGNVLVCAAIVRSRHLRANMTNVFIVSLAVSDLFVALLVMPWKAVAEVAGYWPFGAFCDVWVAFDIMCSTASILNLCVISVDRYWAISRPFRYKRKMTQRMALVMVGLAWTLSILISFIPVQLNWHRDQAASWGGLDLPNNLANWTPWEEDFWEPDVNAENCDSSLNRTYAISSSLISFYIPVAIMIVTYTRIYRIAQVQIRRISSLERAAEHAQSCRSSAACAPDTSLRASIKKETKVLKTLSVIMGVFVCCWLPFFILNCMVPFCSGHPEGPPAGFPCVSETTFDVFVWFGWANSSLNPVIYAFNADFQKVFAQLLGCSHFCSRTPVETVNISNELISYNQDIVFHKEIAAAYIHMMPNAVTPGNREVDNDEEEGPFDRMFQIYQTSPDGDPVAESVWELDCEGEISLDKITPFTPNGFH
Description: as §1

EeAChE = EeAChE (Electrophorus electricus, UniProt O42275); assay: Acetylcholinesterase inhibition, modified Ellman's method; assay type: biochemical, electric eel; details: 1 μM (1000 nM) of compound; preliminary data
Chain of EeAChE (O42275 24-633): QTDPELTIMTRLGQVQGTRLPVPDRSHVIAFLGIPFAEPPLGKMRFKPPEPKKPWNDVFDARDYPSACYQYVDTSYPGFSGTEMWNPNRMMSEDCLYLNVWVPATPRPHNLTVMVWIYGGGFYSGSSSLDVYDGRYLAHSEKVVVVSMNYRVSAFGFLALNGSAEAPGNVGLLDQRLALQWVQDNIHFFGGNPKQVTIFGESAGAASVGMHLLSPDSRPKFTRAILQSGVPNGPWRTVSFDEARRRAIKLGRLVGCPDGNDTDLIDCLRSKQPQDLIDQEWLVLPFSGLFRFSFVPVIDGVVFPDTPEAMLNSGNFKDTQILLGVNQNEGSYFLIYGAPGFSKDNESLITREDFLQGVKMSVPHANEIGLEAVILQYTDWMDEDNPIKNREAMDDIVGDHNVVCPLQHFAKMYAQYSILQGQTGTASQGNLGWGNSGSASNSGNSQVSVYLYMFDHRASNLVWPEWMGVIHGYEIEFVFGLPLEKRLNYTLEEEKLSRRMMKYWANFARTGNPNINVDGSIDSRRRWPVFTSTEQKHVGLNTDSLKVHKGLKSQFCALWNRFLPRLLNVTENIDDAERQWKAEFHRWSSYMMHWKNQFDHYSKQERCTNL

EqBuChE = EqBuChE (Equus caballus, UniProt P81908); assay: Butyrylcholinesterase inhibition, modified Ellman's method; assay type: biochemical, equine; details: 1 μM (1000 nM) of compound; preliminary data, n = 2
Chain of EqBuChE (P81908 whole entry): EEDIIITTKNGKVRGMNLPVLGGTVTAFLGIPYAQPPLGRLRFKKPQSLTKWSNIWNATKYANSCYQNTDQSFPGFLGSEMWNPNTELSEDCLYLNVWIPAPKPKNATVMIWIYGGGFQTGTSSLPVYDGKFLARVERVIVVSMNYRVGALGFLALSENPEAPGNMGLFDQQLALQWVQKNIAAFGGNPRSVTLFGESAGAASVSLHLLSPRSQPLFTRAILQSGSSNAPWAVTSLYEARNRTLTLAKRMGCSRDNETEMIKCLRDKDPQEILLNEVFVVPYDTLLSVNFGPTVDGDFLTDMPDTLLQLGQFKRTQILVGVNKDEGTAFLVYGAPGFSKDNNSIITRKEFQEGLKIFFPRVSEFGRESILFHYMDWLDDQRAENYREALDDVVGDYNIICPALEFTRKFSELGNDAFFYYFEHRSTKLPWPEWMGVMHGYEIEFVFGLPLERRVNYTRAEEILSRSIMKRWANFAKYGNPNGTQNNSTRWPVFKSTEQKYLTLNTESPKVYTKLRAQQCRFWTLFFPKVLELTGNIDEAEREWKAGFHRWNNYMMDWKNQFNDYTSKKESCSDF

Row | Compound | MDA, Striatum (malondialdehyde (MDA)) | MDA, Hippocampus (malondialdehyde (MDA)) | MDA, Cerebellum (malondialdehyde (MDA)) | MDA, Prefrontal Cortex (malondialdehyde (MDA)) | enhanced frequency of self-grooming induced by neuromedin U [1] | social deficits and repetitive behaviors (self-grooming, jumping) (VPA mouse model of ASD) | Ki (human H3R) | Ki (hH1R) | Ki (hD2SRs) | Ki (hD3Rs) | hD2R/hD3R ratio of Ki values (hD3Rs; preference for hD3R) | Ki (hD1Rs) | Ki (hD5Rs) | inhibition at 1 µM (EeAChE) | inhibition at 1 µM (EqBuChE)
1 | O=C1CCc2ccc(OCCCCN3CCN(c4cccc(Cl)c4Cl)CC3)cc2N1 [ARP, aripiprazole] | 41.2 ± 1.4 µM MDA/mg protein | 32.9 ± 4.1 µM MDA/mg protein | 36.8 ± 1.8 µM MDA/mg protein | 43.0 ± 2.5 µM MDA/mg protein | attenuation |  |  |  |  |  |  |  |  |  | 
2 | CC12CC3CC(C)(C1)CC(N)(C3)C2 [MEM, memantine] | 32.6 ± 4.1 µM MDA/mg protein | 32.8 ± 3.4 µM MDA/mg protein | 26.7 ± 3.6 µM MDA/mg protein | 40.0 ± 5.7 µM MDA/mg protein |  | rescued |  |  |  |  |  |  |  |  | 
3 | COc1ccccc1N1CCN(CCCCNC(=O)c2ccc3cc(OCCCN4CCCCC4)ccc3c2)CC1 [ST-2223, N-(4-(4-(2-methoxyphenyl)piperazin-1-yl)butyl)-6-(3-(piperidin-1-yl)propoxy)-2-naphthamide] | 34.5 ± 5.5 µM MDA/mg protein | 38.1 ± 3.1 µM MDA/mg protein | 35.2 ± 1.8 µM MDA/mg protein | 39.1 ± 3.2 µM MDA/mg protein |  |  | 4.8 nM | 85.2 nM | 19.8 nM | 2 nM | 10 | 564 nM | 5060 nM | < 60% | < 30%
